Measured values: patent US8003595B2, “Amino acid sequences facilitating penetration of a substance of interest into cells and/or cell nuclei” (Cellectis, priority 2000, dated 2011)
Where two headings read alike, the source gives them in different places. Marks after values point to notes of the source that are not given here. Where no end group is shown, it is not given here.

Key:
HeLa = assay: Internalization of covalent peptide-peroxidase conjugates; assay type: cell-based, human; conditions: Table 9, 0.2 μg/ml conjugate, 2 hours
Procedure, shortened: (§1)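 Peptides coupled via C-terminal cysteine to maleimide-activated peroxidase, free peptide removed by ultrafiltration. Cells incubated 2 h with 0.2 μg/ml conjugate; peroxidase dosed in lysates, expressed as pg/10^3 cells.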

HeLa cells [1] = assay: Heparin inhibition of internalization of peptide-peroxidase conjugates; assay type: cell-based, human
Experimental: (§2) a) Heparin (50 μg/ml) was incubated with the cells for 1 hour before adding the peptide-peroxidase conjugates at 0.2 μg/ml for 2 hours. The cells were then lysed and the peroxidase dosed.
(§3) The quantity of heparin necessary to inhibit 50% penetration of the peptides coupled to peroxidase was evaluated with these two types of cells, by incubating the cells with the peptide-peroxidase conjugates with increasing concentrations of heparin. The results of inhibiting internalization of the peptides are expressed as the heparin concentration (μg/ml) in Table 2 below.

[2] = ELISA fixation of biotinylated peptides on sensitized plates; assay type: binding; conditions: read-out: avidity (Kd), quantity of peptides necessary to obtain 50% fixation, Chondroitin C; Table 5
[3] = as above; assay type: binding; conditions: read-out: avidity (Kd), quantity of peptides necessary to obtain 50% fixation, Heparin; Table 5
Experimental: The capacity of peptides SEQ ID NO: 1 to 21 to attach themselves to DNA and heparin is evaluated on ELISA plates sensitized with DNA or heparin. Dilutions of biotinylated peptides are deposited on the plates and their fixation is shown using streptavidin conjugated with peroxidase. […] The avidity of each of the peptides for DNA or heparin is evaluated by the quantity (×10^−6 M) of peptides necessary to obtain 50% fixation.

[4] = as above; assay type: binding; conditions: read-out: avidity (Kd), quantity of peptides necessary to obtain 50% fixation, Chondroitin A; Table 5
3T3 = assay: Internalization of covalent peptide-peroxidase conjugates; assay type: cell-based, mouse; conditions: Table 9, 0.2 μg/ml conjugate, 2 hours
Procedure, shortened: as §1

3T3 cells = assay: Heparin inhibition of internalization of peptide-peroxidase conjugates; assay type: cell-based, mouse
Experimental: as §2, §3

H1299 cells [5] = assay: Internalization of biotinylated peptide/S-PO complexes; assay type: cell-based, human; conditions: peptide: S-PO complexes of 4:1, peptide concentration of 1 μg
Procedure, shortened: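 Biotinylated peptides precomplexed 15 min with streptavidin- or avidin-peroxidase at 25:1 or 4:1 peptide:conjugate molar ratio in PBS, diluted in complete medium and incubated with H1299 cells for 4 h. After washing and lysis, internalised peroxidase quantified with ortho-dianisidine/H2O2 at 450 nm against an S-PO standard curve, as pg per 10^4 cells.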

H1299 cells [6] = assay: Internalization of covalent peptide-peroxidase conjugates; assay type: cell-based, human; conditions: Table 9; H1299; 0.2 μg/ml conjugate, 2 hours
Procedure, shortened: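 Peptides coupled via C-terminal cysteine to maleimide-activated peroxidase; uncoupled peptide removed by ultrafiltration. H1299 cells incubated 2 h with increasing conjugate concentrations, washed, lysed; internalized peptide quantified from lysate peroxidase against a conjugate standard curve, as pg/10^3 cells.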

[7] = ELISA fixation of biotinylated peptides on sensitized plates; assay type: binding; conditions: read-out: avidity (Kd), quantity of peptides necessary to obtain 50% fixation, Chondroitin B; Table 5
HH9 tumors [8] = system: HH9 tumors; set-up: species or system nude mice; conditions: mouse, in vivo
Experimental: The nude mice received subcutaneous transplants of HH9 tumor cells as described above. On day 9 after the transplant, the mice received twice a week, by peritumoral injection, 100 μg of RNase, or 65 μg of peptide (HBP3)2 or 65 μg of peptide (HBP3)2+100 μg of RNase, or 100 μg of peptide conjugate (HBP3)2-RNase or HBP6-RNase conjugate. On day 26, the mice were killed and their tumors weighed.

[9] = mouse, in vivo, iv
Experimental: (§9) Injection of doxorubicin or doxorubicin-peptide by the intravenous route makes it possible to compare the toxicity of the different preparations. The estimate is made by the weight loss of the mice (5 mice per group). Two experiments were done: • Experiment 1: The mice received 200 μg per injection at 3-day intervals, or 600 μg of doxorubicin or the equivalent peptide-doxorubicin in all. The mice were weighed the day after the last injection. • Experiment 2: The mice received 2 injections of 200 -μg of doxorubicin or the peptide-doxorubicin equivalent at one week intervals, or 400 μg in all, and were weighed the day after the last injection.
(§10) The average weight loss is calculated in relation to the average weight of the mice that received NaCl.

[10] = system: Salmonella typhimurim (clinical isolate); assay: Antibacterial activity of cationic peptides (MBC); assay type: cell-based; conditions: S. typhimurium
Experimental: (§4) The gram-positive bacterial strains are: Enterococcus faecalis (ATCC 29212), and Staphylococcus aureus (ATCC 25923) and the gram-negative strains are: Escherichia coli (ATCC 25922), Pseudomonas aeruginosa (ATCC 27853) and Salmonella typhimurim (clinical isolate), Salmonella typhiTy2 (WHO). The bacteria are cultured with shaking all night at 37° C., then recultured at a dilution of 1:50 in some fresh Luria-Bertani (LB) medium for 2 hours. The bacterial concentration is adjusted to […], and 50 μl is distributed in 96-well plates with an equal volume of peptides diluted half and half (256-0.5 μg/ml) in LB medium. […] To determine the minimum bactericide concentration, 10 μl from each well is spread on gelose plates in LB medium.
(§5) The results are expressed as the peptide concentration in MBC (μM).

[11] = system: Salmonella typhiTy2 (WHO); assay: microbe, parasite or virus in culture; assay type: cell-based, S. typhi-Ty2; conditions: S. typhi-Ty2
Experimental: as §4, §5

[12] = system: Enterococcus faecalis (ATCC 29212); assay: microbe, parasite or virus in culture; assay type: cell-based; conditions: ATCC 29212
Experimental: as §4, §5

[13] = system: Escherichia coli (ATCC 25922); assay: microbe, parasite or virus in culture; assay type: cell-based; conditions: ATCC 25922; read-out: MBC
Experimental: as §4, §5

[14] = system: Pseudomonas aeruginosa (ATCC 27853); assay: microbe, parasite or virus in culture; assay type: cell-based; conditions: ATCC 27853
Experimental: as §4, §5

[15] = system: Staphylococcus aureus (ATCC 25923); assay: microbe, parasite or virus in culture; assay type: cell-based; conditions: ATCC 25923
Experimental: as §4, §5

[16] = system: Escherischia coli (ATCC25922); assay: Activity of lysozyme coupled to peptides (MBC); assay type: cell-based, Escherichia coli; conditions: E. coli
Experimental: The […] bacterial strain Escherischia coli (ATCC25922) is cultured until the semi-logarithmic phase in Luria-Bertani (LB) medium. The bacteria are collected by centrifugation and resuspended in 1% bacto-peptone medium at a concentration of 5×10^5 cfu/ml (colony forming unit/ml). Lysozyme or the peptide-lysozyme conjugates are diluted half and half (256 to 0.5 μg/ml) in bacto-peptone medium, and 50 μl is distributed in 96-well plates. 50 μl of the bacterial dilution is then added to each well. After 16 hours of incubation at 37° C., 10 μl from each well is smeared on gelose plates in LB medium.
Table 28 reports the inhibition of the growth of E. coli (MBC μg/ml).

H1299 = assay: Growth inhibition by peptide-doxorubicin conjugates (MTT, 48 hours); assay type: cell-based; conditions: Homo sapiens, NCI-H1299, read-out: molar concentration giving 50% inhibition of the growth of the cells
Experimental: (§6) To evaluate the biological activity of peptide-doxorubicin conjugates, the inhibition of the growth of tumor cells in culture is measured.
(§7) The cells are sown the night before in 96-well plates at the rate of 10^3 cells per well.

HH9 = assay: as above; assay type: cell-based; conditions: Homo sapiens, read-out: molar concentration giving 50% inhibition of the growth of the cells
Experimental: as §6, §7

[17] = In vivo toxicity of peptide-doxorubicin conjugates (weight loss); conditions: for Weight loss: relative to mice that received NaCl; for Weight of the mice: intravenous, peptide-doxorubicin conjugates
Experimental: as §9, §10

MCF7R = assay: Growth inhibition by peptide-doxorubicin conjugates (MTT, 48 hours); assay type: cell-based; conditions: Homo sapiens, read-out: molar concentration giving 50% inhibition of the growth of the cells, resistant to doxorubicin
Experimental: as §6, §7
(§8) It appears that, in vitro, the sensitivity of the cells to the peptide-doxorubicin conjugates is on the same order of magnitude as that of natural doxorubicin. The lines resistant to doxorubicin (K562R and MCF7R) require a greater concentration of doxorubicin.

K562 R = assay: as above; assay type: cell-based; conditions: Homo sapiens, K-562R, read-out: molar concentration giving 50% inhibition of the growth of the cells, resistant to doxorubicin
Experimental: as §6, §7, §8

B16.F10 = assay: as above; assay type: cell-based, murine; conditions: Mus musculus, read-out: molar concentration giving 50% inhibition of the growth of the cells
Experimental: as §6, §7

HH9 tumors [18] = assay: In vivo anti-tumor activity of peptide-doxorubicin conjugates; set-up: species or system nude mice; conditions: day 60, total of 120 μg of doxorubicin or the equivalent, peritumoral injection
Experimental: Nude mice are injected with 3×10^6 HH9 cells subcutaneously in the side. On day 19 after the cell implant, the tumors are measured, and 4 groups of 6 mice are formed that receive by peritumoral injection either NaCl, or natural doxorubicin, or 1047-doxorubicin, or HBP1-doxorubicin conjugates at the rate of 30 μg of doxorubicin or the equivalent of conjugates every two weeks. The tumors are measured and their volume calculated.

HeLa cells [19] = assay: Penetration of RNase A transported by peptide-F(ab′)2 anti-RNase transporter; assay type: cell-based, human
Experimental: Two mg of antibody F(ab′)2 anti-RNase in 1 ml of potassium phosphate buffer 0.1 M pH 7.4 are added to 110 μg of SMCC [succinimidyl 4-(N-maleimidomethyl)cyclohexane-1-carboxylate] in 11 μl of dimethylsulfoxide. The solution is incubated for 45 minutes at laboratory temperature. The excess reagent is eliminated by centrifugation on ultrafiltration membranes (cutoff threshold=10,000 Da, Vivascience), followed by three washings in sodium phosphate buffer 10 mM, pH 7 containing 01.5 M of NaCl and 5 mM of EDTA. The coupling with the peptide is then done in a molar ratio of 6 peptides to 1 F(ab′)2 in the sodium phosphate buffer 10 mM, pH 7, containing 0.5 M of NaCl and 5 mM of EDTA for three hours at laboratory temperature. Then, the excess uncoupled peptide is totally eliminated by centrifugation on ultrafiltration membranes, as in the preceding step. These transporters [anti-RNase peptide-F(ab′)2)] are added to ribonuclease A in some complete culture medium, and the solution is incubated for 1 hour at laboratory temperature. The molar ratio of this reaction is 2 RNase/1 F(ab′)2. […]
To measure the quantity of RNase A internalized, the cells are trypsinized, transferred into microtubes and counted. […]

HeLa cells [20] = assay: Penetration of peroxidase transported by peptide-IgG anti-PO transporter; assay type: cell-based, human; conditions: via the transporter [peptide-IgG anti-PO]
Experimental: Two mg of specific monoclonal IgG antibody of peroxidase or their fragment F(ab′)2 in 1 ml of potassium phosphate buffer 0.1 M, pH 7.4 are added to 110 μg of SMCC [succinimidyl 4-(N-maleimidomethyl)cyclohexane-1-carboxylate] in 11 μl of dimethylsulfoxide. The solution is incubated for 45 minutes at laboratory temperature. The excess reagent is eliminated by centrifugation on ultrafiltration membranes (cutoff threshold =10,000 Da, Vivascience), followed by three washings in sodium phosphate buffer 10 mM, pH 7 containing 0.5 M of NaCl and 5 mM of EDTA.
The peptide is then coupled in a molar ratio of 6 peptides to 1 IgG or 1 F(ab′)2 in the sodium phosphate buffer 10 mM, pH 7, containing 0.5 M of NaCl and 5 mM of EDTA for three hours at laboratory temperature. Then, the excess uncoupled peptide is totally eliminated by centrifugation on ultrafiltration membranes, as in the preceding step. These transporters [peptide-IgG anti-PO] are added to the peroxidase or the biotinylated peroxidase in some 0.5 M NaCl buffer. The solution is incubated for 1 hour at laboratory temperature. The molar ratio of this reaction is 2 PO/1 IgG or F(ab′)2. […]
To measure the quantity of PO internalized, the cells are trypsinized, transferred into microtubes and counted. […]

Experimental for HH9 cells: The cells are sown at night on plates with 96 wells, at the rate of 10^3 cells per well.
The next day, the supernatant is suctioned off and replaced with 100 μl of medium containing succession dilutions of RNase A-vector or natural RNase A and the culture continued for 72 hours.
The wells are then filled with 50 μl of a solution of MTT (3-(4,5-dimethylthiazol-2-yl)-2,5-diphenyl tetrazolium bromide) at 1 mg/ml in the culture medium and cultivated for 4 hours.
The supernatant is removed, and 100 μl of dimethylsulfoxide is added to the wells. After the crystals dissolve, the coloration is read at 550 nm.
The results are calculated as a percentage of the average optic density obtained in the wells of cells containing the dilutions of the samples being tested and the optical density of the wells that received only medium.
The different peptide-RNase conjugates were tested on varied cell lines.

For GRPRESGKKRKRKRLKP [SEQ ID NO: 21], the “Internalization of Peptide-peroxidase” value (HeLa) was 13.2 pg/10^3 cells, the “heparin concentration necessary to inhibit 50% penetration of the peptides coupled to peroxidase” value (HeLa cells [1]) was 2.3 µg/mL and the Kd [2] was 12 nM. The Kd [3] was 16 nM, the Kd [4] was 135 nM and the “Internalization of Peptide-peroxidase” value (3T3) was 83.7 pg/10^3 cells. For the same molecule, the “heparin concentration necessary to inhibit 50% penetration of the peptides coupled to peroxidase” value (3T3 cells) was 4.1 µg/mL, the S-PO internalized (H1299 cells [5]) was 1680 pg/10^4 cells and the “Internalization of Peptide-peroxidase” value (H1299 cells [6]) was 21.9 pg/10^3 cells. It also gave a Kd [7] of 110 nM.

With SERKKRRRESRKKRRRES [SEQ ID NO: 26] the “Inhibition of the growth of the tumors” value (HH9 tumors [8]) was 10%.

In the case of KHLKKHLKKHLK [SEQ ID NO: 38], the “Weight of the mice” value [9] is reported as 30, the MBC [10] is reported as over 170 µM and the MBC [11] is reported as over 170 µM. For the same molecule, the MBC [12] was over 170 µM, the MBC [13] was over 170 µM and the MBC [14] was over 170 µM. It also gave an MBC [15] of over 170 µM.

With “Natural lysozyme: lysozyme, a muraminidase, unconjugated” the “minimal bactericide concentration (MBC), inhibits 75% of the growth” value [16] was over 256 µg/mL.

With `COc1cccc2c1C(=O)c1c(O)c3c(c(O)c1C2=O)C[C@@](O)(C(=O)CO)C[C@@H]3O[C@H]1C[C@H](N)[C@H](O)[C@H](C)O1` [Doxorubicin (natural), Doxorubicin] the IC50 (H1299) was 300 nM, the IC50 (HH9) was 300 nM and the Weight loss ([17]; Exp. 1: 600 μg in all) was 31* %. The Weight loss ([17]; Exp. 1: 600 μg in all, listed as natural doxorubicin) was 31%, the “Weight of the mice” value ([17]; Exp. 1: 600 μg of doxorubicin or equivalent in all) was 16.06 and the Weight loss ([17]; Exp. 2: 400 μg in all) was 15%. For the same molecule, the “Weight of the mice” value ([17]; Exp. 2: 400 μg of doxorubicin or equivalent in all) was 26.7, the IC50 (MCF7R) was 200 µM and the IC50 (K562 R) was 3000 nM. It also gave an IC50 (B16.F10) of 100 nM and a tumor growth inhibition (HH9 tumors [18]) of 79%.

B1: natural RNase A: bovine Ribonuclease A, unconjugated (protein)
chain: KETAAAKFERQHMDSSTSAASSSNYCNQMMKSRNLTKDRCKPVNTFVHESLADVQAVCSQKNVACKNGQTNCYQSYSTMSITDCRETGSSKYPNCAYKTTQANKHIIVACEGNPYVPVHFDASV
For B1, the cytotoxic activity (HH9 cells) was “no cytotoxic activity” and the “Quantity of RNase internalized” value (HeLa cells [19]) was 0 pg/10^4 cells.

B2: Biotinylated PO: biotinylated peroxidase transported by the transporter [peptide-IgG anti-PO] (protein)
chain: QLTPTFYDNSCPNVSNIVRDTIVNELRSDPRIAASILRLHFHDCFVNGCDASILLDNTTSFRTEKDAFGNANSARGFPVIDRMKAAVESACPRTVSCADLLTIAAQQSVTLAGGPSWRVPLGRRDSLQAFLDLANANLPAPFFTLPQLKDSFRNVGLNRSSDLVALSGGHTFGKNQCRFIMDRLYNFSNTGLPDPTLNTTYLQTLRGLCPLNGNLSALVDFDLRTPTIFDNKYYVNLEEQKGLIQSDQELFSSPNATDTIPLVRSFANSTQTFFNAFVEAMDRMGNITPLTGTQGQIRLNCRVVNSNS
For B2, the “Quantity of molecules internalized” value (HeLa cells [20]) was 1700 pg/10^4 cells.
